# Experimental data from a melting point compilation (Tetko et al.; mined from patent text by program, amines drawn as free bases though some values may be those of a salt).
row,Compound,melting point [°C]
1,CCc1c(N)nc(-c2ccc(C(F)(F)F)cc2)nc1C(=O)OC,123 to 124
2,CN1CCC(=C2c3ccccc3Sc3ccc(S(=O)(=O)C(F)(F)F)cc32)CC1,125 to 128
3,Cc1cc(OCC2CO2)c(N)c([N+](=O)[O-])c1 (stereo unspecified),90 to 91
4,CN(C)C(=O)NCCCCC1CCSS1 (stereo unspecified),52 to 53
5,NC(=S)Nc1cc2ccccc2cn1,225 to 227
6,Cc1cc(C(O)(C(F)(F)F)C(F)(F)F)cc(C)c1OCCNCc1ccccc1,117 to 120
7,N#CCc1nc(C(=O)c2ccccc2)no1,96.5 to 97.5
8,COc1cc(OC)nc(N(C)C(=O)NS(=O)(=O)c2ccccc2OC(F)(F)F)n1,162
9,COC(OC)C(=O)NC(Cc1ccccc1)c1ccccc1 (stereo unspecified),108 to 110
10,CN1Cc2c(-c3nc(CNCc4ccccc4)no3)ncn2-c2ccccc2C1=O,195 to 198
11,O=C(O)/C=C1\CCc2c(F)cc(Cl)cc21,254 to 256
12,CC(=O)Nc1c(C)ccc(N)c1C,195 to 197
13,CSc1ncc(Cc2cccs2)c(=O)[nH]1,170 to 172
14,COc1cc(Nc2nccc(-c3ccc4ccccc4c3)n2)cc(OC)c1OC,156
15,Cc1cc(C)c(-c2c(OCOCC(C)C)oc(-c3ccsc3)c(C)c2=O)c(C)c1,102 to 104
16,CCN[C@H]1C[C@H](CCCOCCOC)S(=O)(=O)c2sc(S(N)(=O)=O)cc21 (relative stereo),177 to 179
17,CC(=O)NCCc1cn(S(=O)(=O)c2c(Cl)nc3sccn23)c2ccccc12,150 to 152
18,CC(=O)NC[C@H]1CN(c2ccc(N3CCN(C(=S)CN)CC3)c(F)c2)C(=O)O1,202 to 204
19,CC(C)(C=O)Oc1ccc(Cl)cc1C#N,85 to 88
20,O=c1c2ccc(-c3nnn[nH]3)cc2oc2ccc(-c3nnn[nH]3)cc12,> 400
21,O=C(OCCc1ccccc1)ON1C(=O)CCC1=O,69 to 72
22,COC(=O)CC[C@H](NC(=O)c1ccc(C#Cn2cnc3nc(NC(=O)C(C)(C)C)cc-3c2O)cc1)C(=O)OC,280 to 285
23,Cc1cccc2c1NC(=O)C(NC(=O)OCc1ccccc1)N=C2c1ccccc1F (racemic),222 to 225
24,CC(C)OC1CC(O)C(=O)N1S(=O)(=O)c1ccccc1 (stereo unspecified),127 to 129
25,CCCc1c(OCC(O)COc2ccc3c(=O)cc(C=CC(=O)O)oc3c2CCC)ccc(C(C)=O)c1O (stereo unspecified),101 to 103
26,CN(C)c1nc(NCc2ccc(NC(=O)c3ccc(F)cc3)cc2)c2ccc(C#N)cc2n1,150

row,Compound,melting point [°C]
1,CC(=O)OC1CSC(Oc2cnccc2-c2c(C)noc2C)C(OC(C)=O)C1OC(C)=O (stereo unspecified),150 to 155
2,COC(=O)N1CCc2onc(O)c2CC1,127 to 128
3,COc1ccc(/C(=C/C=C/C(=O)Oc2ccc([N+](=O)[O-])cc2)c2cccs2)cc1,113 to 115
4,CC(=O)NCCCC(=O)c1ccccc1,92 to 95
5,O=C(O)[C@@H]1CCCN1S(=O)(=O)CCS,99 to 101
6,O=Cc1cc2ccc3ccc4ccccc4c3c2o1,169
7,O=C(NCc1nccs1)c1ccnc(N2CCN(Cc3ccc(F)cc3)C2=O)c1,123 to 125
8,CN1C(=O)C(c2c[nH]c3ccccc23)=C(c2cn(C)c3ccccc23)C1=O,168 to 171
9,COc1ccccc1Sc1c(Cl)nc(C)nc1Cl,140
10,C=Cc1ccc(C2=CC(=O)NC2=O)cc1,124 to 127
11,O=[N+]([O-])c1ccc(CN2CCCCc3sccc32)cc1,141 to 142
12,N#Cc1ccccc1/C=C/C(=O)Nc1cc(Cl)cc(NC(=N)c2ccccc2)c1,220 to 221
13,CN1c2ccc(Cl)cc2C(c2ccccc2[N+](=O)[O-])=Nc2cccnc21,165 to 166
14,O=C(Nc1cccnc1)N1CCN(c2ccnc(-c3cccc(F)c3F)n2)CC1,208 to 209
15,CC1(C)Oc2ccc(OC(F)(F)F)cc2[C@@H](N2Cc3cccnc3C2=O)[C@@H]1O (relative stereo),248 to 250
16,N#CC(C(=O)c1ccc(-c2nnn[nH]2)cc1)=C1CCCCN1,> 220
17,CCCc1nc(C=O)c(Cl)c(N)c1F,89 to 91
18,CCOC(=O)c1cnn(CC(O)c2ccccc2)c1NC(=S)NC(=O)c1ccccc1 (stereo unspecified),171 to 172
19,COc1ccc(/C=C/C(=O)Nc2ccccc2C(=O)OCC(=O)NCC(C)(C)S)cc1OC,148 to 150
20,COc1ccc2cc(C(C)C(=O)ON3CCCCC3)ccc2c1 (stereo unspecified),95 to 97
21,Cc1cccc(-c2sc(N)nc2-c2ccnc(-c3ccc(OCCN4CCCC4)cc3)c2)n1,150
22,CC(C)N(Cc1cccs1)C(=O)C12CC3CC(CC(C3)C1)C2,156 to 158
23,O=C1CN(Cc2ccc(CCn3cnc4cc(-c5ccc(Cl)cc5)sc4c3=O)cc2)CCN1,232 to 234
24,CC(C)(C)c1cc(C(=O)CBr)cc2c1OCC2(C)C,54 to 56
25,CN(C)S(=O)(=O)c1ccc(Oc2ccc([N+](=O)[O-])cc2C#N)cc1,222 to 223
